Measured values published in US20130197016A1, “DOSING REGIMES FOR THE TREATMENT OF OCULAR VASCULAR DISEASE” (priority 2010, published 2013).
“Also recorded” adds a separate entry of the source. Like-named read-outs stand apart in the source and are kept apart here.

Experiments:
[1] = tested on: laser-induced choroidal neovascularization (CNV) area; test: Rat laser-induced CNV model; weekly administration (Example 3); type: in vivo, Brown Norway rats; conditions: for inhibition in vivo at 1 mg/kg: 1 mg/kg weekly (before laser, day 6 and 13); for Efficacy in a weekly dosing regimen: weekly dosing at doses of Table 2, compared to daily; for inhibition in vivo at 0.3 mg/kg: 0.3 mg/kg weekly (before laser, day 6 and 13); for inhibition in vivo at 3 mg/kg: 3 mg/kg weekly (before laser, day 6 and 13), formulation A (B for Compound 9)
Procedure: After laser insults, the rats were administered the compounds of Table 1 formulated as specified in Table 2 or placebo on day 6 and 13.

[2] = Ocular PK in Brown Norway rats following a single oral dose (Example 5); type: in vivo; conditions: for Kp / AUC(0-t): Brown Norway, rat; for Kp: retina/plasma, po; for AUC(0-t): sampling 6-144 hrs; for Concentration over time in posterior eye cup and retina (words, FIG. 3-6): single oral dose per Table 3 (Compound 1 30 mg/kg, Compound 2 10 mg/kg, Compound 9 10 mg/kg)
Procedure: Three month old Brown Norway rats were administered orally with active agent of Table 1 at the dosing concentration and formulation specified in Table 3 infra. […] The ocular tissues collected were the retina and the posterior eye cup.
Ocular tissues were homogenized and plasma proteins precipitated and drug concentration was analyzed by LC-MS/MS.

[3] = tested on: laser-induced choroidal neovascularization (CNV) area; test: Rat laser-induced choroidal neovascularization (CNV) model; daily administration (Example 1); type: in vivo, Brown Norway rats; conditions: 264 h, read-out: Efficacy Daily % (Ex. 1); for inhibition in vivo at 1 mg/kg: 1 mg/kg oral daily to day 11 or 12, formulation A; for inhibition in vivo at 0.3 mg/kg: 0.3 mg/kg oral daily to day 11 or 12, formulation A
Procedure: Three month old Brown Norway rats were administered with placebo or active agent of Table 1 at the dosing concentration and formulation specified in Table 2 infra about one hour prior to laser application. The rat eyes were dilated with one drop of phenylephrine and cyclopentolate (Altaire Pharmaceuticals inc. Aqueboque, N.Y. and Akorn Inc. Lake Forest, Ill.) and then immobilized. Each eye was administered four laser burns 2-3 disc diameters from the optic nerve with an Oculight GLx 532 nm laser (Iridex). Each study group had 10 rats, 20 eyes and 80 data points.
After laser insult, the rats were administered placebo or the compounds of Table 1 at the dosing concentration and formulation specified in Table 2 daily from day 1 to day 11 or 12. Immediately before harvesting the eyes, rodents were injected i.v. with a 2,000 kd fluorescein isothiocyanate (FITC) dextran vascular label. Tissues were harvested about 24 hours after the last dose was administered.
Eyes were fixed with 4% paraformaldehyde and the retinal pigment epithelium(RPE)/choroid/sclera complexes dissected and placed onto microscope slides. Fluorescent images of each CNV lesion were captured and lesion areas were quantified on masked data using Axiovision software (Version 4.5 Zeiss). Inter-group differences were analyzed by one-way analysis of variance (ANOVA) with a Neuman-Keuls post hoc analysis (Prism v. 4.02 by GraphPad Software, Inc. La Jolla Calif.). Efficacy is defined herein to mean the percentage reduction in CNV area after treatment compared to placebo.
Each group consisted of 10 rats, 4 laser burns/eye, and 80 data points/group. Assay length was 11 or 12 days after laser (1 mg/kg n=2, 3 mg/kg n=5, 10 mg/kg n=7, 30 mg/kg n=1).

[4] = tested on: neovascular adult macular degeneration (AMD); conditions: oral, alone or with intravitreal bevacizumab, daily or thrice weekly, three patients; cited from earlier work
[5] = Rattus norvegicus, 144 h, formulation A, percent reduction in CNV area vs vehicle control, read-out: Efficacy Weekly % (Ex. 3)
[6] = percent reduction in CNV area vs vehicle control
[7] = Rattus norvegicus, 144 h, percent reduction in CNV area vs vehicle control, read-out: Efficacy Weekly % (Ex. 3)
[8] = 3 mg/kg oral daily to day 11 or 12, formulation A (B for Compound 9), percent reduction in CNV area vs vehicle control

In the case of `Cc1ccc(Nc2nccc(N(C)c3ccc4c(C)n(C)nc4c3)n2)cc1S(N)(=O)=O` [Compound 1, 5-[[4-[(2,3-Dimethyl-2H-indazol-6-yl)methylamino]-2-pyrimidinyl]amino]-2-methylbenzolsulfonamide], the inhibition in vivo at 30 mg/kg ([1]; Rattus norvegicus, 144 h, 30 mg/kg weekly (before laser, day 6 and 13), formulation A, percent reduction in CNV area vs vehicle control, read-out: Efficacy Weekly % (Ex. 3)) was 50%, the Kp ([2]; 30 mg/kg) was 0.2 and the AUC(0-t) ([2]; single oral dose 30 mg/kg, plasma, read-out: AUC(last) Plasma) was 583 µM·h. The AUC(0-t) ([2]; single oral dose 30 mg/kg, posterior eye cup, read-out: AUC(last) PEC) was 6820 µM·h, the AUC(0-t) ([2]; single oral dose 30 mg/kg, retina, read-out: AUC(last) Retina) was 132 µM·h and the “Plasma exposure over time (words, FIG. 3-4)” value ([2]; single oral dose per Table 3 (Compound 1 30 mg/kg, Compound 2 10 mg/kg)) was “increased plasma exposure throughout the duration of the week after administration”. The “Concentration over time in posterior eye cup and retina (words, FIG. 3-6)” value [2] was “sustained ocular exposure in the posterior eye cup tissues for at least a week” and the inhibition in vivo at 30 mg/kg ([3]; 30 mg/kg oral daily to day 11 or 12, formulation A, percent reduction in CNV area vs vehicle control) was 42%.

In the case of `Nc1cc(Oc2ccc3c(C(=O)Nc4cccc(C(F)(F)F)c4)cccc3c2)ncn1` [Compound 3, 6-(6-Amino-pyrimidin-4-yloxy)-naphthalene-1-carboxylic acid (3-trifluoromethyl-phenyl)-amide], the inhibition in vivo at 1 mg/kg [1, 5] was 57%, the “Efficacy in a weekly dosing regimen” value [1] was “greatest level of efficacy” and the inhibition in vivo at 1 mg/kg [3, 6] was 63%.

For `CC(=O)N1Cc2ncnc(Oc3ccc4c(ccn4C(=O)Nc4cc(C5CC5)on4)c3)c2C[C@@H]1C` [Compound 4, (−)-5-((S)-7-Acetyl-6-methyl-5,6,7,8-tetrahydro-pyrido[3,4-d]pyrimidin-4-yloxy)-indole-1-carboxylic acid (5-cyclopropyl-isoxazol-3-yl)-amide], the inhibition in vivo at 0.3 mg/kg [1, 5] was 50% and the inhibition in vivo at 0.3 mg/kg [3, 6] was 96%.

With `CC1(c2cc(NC(=O)n3ccc4cc(Oc5ncnc6c5CCNC6)ccc43)[nH]n2)CC1` [Compound 5, 5-(5,6,7,8-Tetrahydro-pyrido[3,4-d]pyrimidin-4-yloxy)-indole-1-carboxylic acid [5-(1-methyl-cyclopropyl)-2H-pyrazol-3-yl]-amide] the inhibition in vivo at 10 mg/kg ([1]; Rattus norvegicus, 144 h, 10 mg/kg weekly (before laser, day 6 and 13), formulation A, percent reduction in CNV area vs vehicle control, read-out: Efficacy Weekly % (Ex. 3)) was 50% and the inhibition in vivo at 10 mg/kg ([3]; 10 mg/kg oral daily to day 11 or 12, formulation A, percent reduction in CNV area vs vehicle control) was 85%.

With `COc1cc2nccc(Oc3ccc(NC(=O)Nc4cc(C)on4)c(Cl)c3)c2cc1OC` [Compound 6, 1-(2-chloro-4-((6,7-dimethoxyquinolin-4-yl)oxy)phenyl)-3-(5-methylisoxazol-3-yl)urea] the “Loss of efficacy in weekly dosing compared to daily dosing” value ([1]; 0.3 mg/kg) was 39%, the inhibition in vivo at 0.3 mg/kg [1, 5] was 40% and the inhibition in vivo at 1 mg/kg [1, 5] was 90%. The “Efficacy in a weekly dosing regimen” value [1] was “greatest level of efficacy”, the Kp ([2]; 0.3 mg/kg) was 0.6 and the AUC(0-t) ([2]; single oral dose 0.3 mg/kg, plasma, read-out: AUC(last) Plasma) was 1.2 µM·h. For the same compound, the AUC(0-t) ([2]; single oral dose 0.3 mg/kg, posterior eye cup, read-out: AUC(last) PEC) was 83.5 µM·h, the AUC(0-t) ([2]; single oral dose 0.3 mg/kg, retina, read-out: AUC(last) Retina) was 2.47 µM·h and the “Retinal to plasma exposure ratio, comparison among compounds” value ([2]; single oral dose per Table 3 (Compound 2 10 mg/kg, Compound 6 0.3 mg/kg)) was “lower retinal to plasma exposure ratio than Compound 2”. It also gave an inhibition in vivo at 0.3 mg/kg [3, 6] of 79% and an inhibition in vivo at 1 mg/kg [3, 6] of 96%.

Compound `O=C(Nc1cccc(C(F)(F)F)c1)c1cccc2cc(Oc3cc(CO)ncn3)ccc12` [Compound 7, 6-(6-Hydroxymethyl-pyrimidin-4-yloxy)-naphthalene-1-carboxylic acid (3-trifluoromethyl-phenyl)-amide] has an inhibition in vivo at 3 mg/kg [1, 7] of 46% and an inhibition in vivo at 3 mg/kg [3, 8] of 96%.

For `O=C(Nc1cc(C2CC2)on1)n1ccc2cc(Oc3ncnc4c3CNC4)ccc21` [Compound 8, 5-(6,7-dihydro-5H-pyrrolo[3,4-d]pyrimidin-4-yloxy)-indole-1-carboxylic acid (5-cyclopropyl-isoxazol-3-yl)-amide], the inhibition in vivo at 3 mg/kg [1, 7] was 26%, the “Efficacy in a weekly dosing regimen” value [1] was “least efficacy” and the inhibition in vivo at 3 mg/kg [3, 8] was 88%.

In the case of `CNC(=O)c1cc(Oc2ccc(NC(=O)Nc3ccc(Cl)c(C(F)(F)F)c3)cc2)ccn1` [Compound 9, 4-[4-[[4-chloro-3-(trifluoromethyl)phenyl]carbamoylamino]phenoxy]-N-methyl-pyridine-2-carboxamide], the “Benefit in neovascular AMD patients” value [4] is listed as “uncertain benefit”, the inhibition in vivo at 3 mg/kg [1, 7] is listed as 26% and the “Efficacy in a weekly dosing regimen” value [1] is listed as “least efficacy; also recorded: absence of efficacy”. The Kp ([2]; 10 mg/kg) was 2.1, the AUC(0-t) ([2]; single oral dose 10 mg/kg, plasma, read-out: AUC(last) Plasma) was 151 µM·h and the AUC(0-t) ([2]; single oral dose 10 mg/kg, posterior eye cup, read-out: AUC(last) PEC) was 82 µM·h. The AUC(0-t) ([2]; single oral dose 10 mg/kg, retina, read-out: AUC(last) Retina) was 95.1 µM·h, the “Concentration over time in posterior eye cup and retina (words, FIG. 3-6)” value [2] was “substantially similar at each sampling time point” and the inhibition in vivo at 3 mg/kg ([3]; po) was 90%.

For `CNCc1cc(Oc2ccc3c(ccn3C(=O)Nc3cc(C(F)(F)F)n(C)n3)c2)ncn1` [Compound 10, 5-(6-Methylaminomethyl-pyrimidin-4-yloxy)-indole-1-carboxylic acid (1-methyl-5-trifluoromethyl-1H-pyrazol-3-yl)-amide], the inhibition in vivo at 1 mg/kg [1, 5] was 23%, the “Efficacy in a weekly dosing regimen” value [1] was “least efficacy” and the inhibition in vivo at 1 mg/kg [3, 6] was 88%.
